Measured values: ChEMBL document CHEMBL1137117, “Cinnamic acid esters as potent inhibitors of fungal 17beta-hydroxysteroid dehydrogenase--a model enzyme of the short-chain dehydrogenase/reductase superfamily” (Bioorg Med Chem Lett, 2004)
pIC50: −log10 of the molar value.

How the values were obtained:
Set-up in all cases: species or system Curvularia lunata
[1] = biological target: T1, 17-beta-hydroxysteroid-dehydrogenase (Cochliobolus lunatus, UniProt O93874); test: Inhibitory activity against 17 beta-hydroxysteroid dehydrogenase catalysed oxidation reaction
T1 sequence (O93874 whole entry): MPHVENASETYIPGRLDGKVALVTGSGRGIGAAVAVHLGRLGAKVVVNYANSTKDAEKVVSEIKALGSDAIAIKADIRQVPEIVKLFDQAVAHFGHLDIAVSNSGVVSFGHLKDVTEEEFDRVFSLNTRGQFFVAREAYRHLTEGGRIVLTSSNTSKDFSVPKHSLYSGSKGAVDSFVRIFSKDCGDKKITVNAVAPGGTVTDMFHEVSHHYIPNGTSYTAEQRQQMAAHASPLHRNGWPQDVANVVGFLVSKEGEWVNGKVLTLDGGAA

[2] = biological target: T1, 17-beta-hydroxysteroid-dehydrogenase; test: Inhibitory activity against 17 beta-hydroxysteroid dehydrogenase catalysed reduction reaction; conditions: for pIC50: read-out: IC50
[3] = biological target: T1, 17-beta-hydroxysteroid-dehydrogenase; test: Inhibitory activity against 17 beta-hydroxysteroid dehydrogenase catalysed oxidation reaction; NI=no inhibition
[4] = biological target: T1, 17-beta-hydroxysteroid-dehydrogenase; test: Inhibitory activity against 17 beta-hydroxysteroid dehydrogenase catalysed reduction reaction; NI=no inhibition

SMILES	pIC50 [1]	pIC50 [2]	IC50 [3]	IC50 [4]	IC50 [2]
O=C(OCc1ccccc1)c1cc2ccccc2oc1=O	5.57	5.10			
CC(=O)Nc1ccc(OC(=O)/C=C/c2ccccc2)cc1	< 3.70	< 3.70			
COc1cc(COC(=O)c2cc3ccccc3oc2=O)cc(OC)c1OC			Not Active	Not Active	
N#Cc1ccc(OC(=O)/C=C/c2ccccc2)cc1	4.89			Not Active	
O=C(/C=C/c1ccccc1)OCc1cccc(Oc2ccccc2)c1	3.89			Not Active	
COc1cc(COC(=O)/C=C/c2ccccc2)cc(OC)c1OC	4.85			Not Active	
O=C(/C=C/c1ccccc1)OCN1C(=O)c2ccccc2C1=O	5.00			Not Active	
COc1cccc(OC(=O)/C=C/c2ccccc2)c1	3.87				No inhibition
O=C(/C=C/c1ccccc1)Oc1cccc2ccccc12	5.00				
O=C(OCN1C(=O)c2ccccc2C1=O)c1cc2ccccc2oc1=O			Not Active	Not Active	
CCCCCCCC(=O)Nc1ccc(OC(=O)/C=C/c2ccccc2)cc1	< 3.70	< 3.70			
O=C(/C=C/c1ccccc1)OCCN1C(=O)c2ccccc2C1=O	5.30	4.05			
O=C(OCCN1C(=O)c2ccccc2C1=O)c1cc2ccccc2oc1=O			Not Active	Not Active	
O=C(/C=C/c1ccccc1)OC1CCCCC1			Not Active	Not Active	
O=C(/C=C/c1ccccc1)OCc1ccccc1 [BENZYL CINNAMATE]	6.15	5.15			
O=C(/C=C/c1ccccc1)Oc1ccccc1 [PHENYL CINNAMATE]	4.59	< 3.70			
